The record followed here is patent US20070043115A1, “Use of choline to prevent thrombosis associated with total parenteral nutrition” (priority 2005, published 2007).

The procedure of data set [1]:
Prior to use, the appropriate amount of choline solution is transferred from the sterile vial and is added to the nutrient solution which typically is contained in a TPN bag.

The subject of data set [2] is plasma levels of homocysteine. As for the experimental part:
Two female normal volunteers were infused with C-13-labeled choline and plasma levels of homocysteine were determined before and after infusion.

Where two headings read alike, the source gives them in different places.

For `C[N+](C)(C)CCO.[Cl-]` [Choline chloride, choline chloride], the “effects on the TPN solution turbidity, pH, or amino acid concentrations” value in data set [1] (choline chloride added to TPN nutrient solutions) is reported as “no adverse affects”. Also, the “stable in various TPN nutrient solutions” value in data set [1] (various TPN nutrient solutions) is “at least 30 days”.
Consider C-13-labeled choline, for which the “Plasma concentration of homocysteine after infusion” value was found to be 5.14 µmol/L in data set [2] (first normal volunteer, 6.62 umol/L before infusion) and 6.64 µmol/L in data set [2] (second normal volunteer, 7.47 umol/L before infusion).
